Source: patent US8415351B2 (priority 2007, dated 2013)

How the values were obtained:
[1] = tested on: genotype 1a-H77 subgenomic replicon cell line; assay: microbe, parasite or virus in culture; type: cell-based, HCV; conditions: Hepatitis C virus, read-out: EC50 1a
[2] = tested on: genotype 1b-Con1 subgenomic replicon cell line; assay: microbe, parasite or virus in culture; type: cell-based, HCV; conditions: Hepatitis C virus, read-out: EC50 1b
[3] = target: T1, HCV polymerase 1A (Δ21 NS5B, H77) (Hepatitis C virus genotype 1a, UniProt P27958); assay: biochemical; conditions: IC50 1a
T1 construct: 20 to 50 nM Δ21 NS5B
How it was run: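 Radiometric assay with Δ21 NS5B (H77): 20 μM CTP, 20 μM ATP, 1 μM ^3H-UTP, 5 nM template RNA, 2–4 h at room temperature. RNA precipitated with spermine, filter-captured and counted. IC50 from non-linear fit of retained cpm vs inhibitor concentration (tight-binding equation).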

[4] = target: T2, HCV polymerase 1B (Δ21 NS5B, BK) (Hepatitis C virus genotype 1b, UniProt P26663); assay: biochemical
T2 construct: 20 to 50 nM Δ21 NS5B
How it was run: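 Δ21 NS5B (genotype 1b, BK […]) preincubated 15 min RT with inhibitor, 2 mM MnCl2, pH 7.4, 60–125 μM GTP; started with 20 μM CTP/ATP, 1 μM 3H-UTP, 5 nM template RNA, run 2–4 h RT. Spermine-precipitated RNA filter-captured, scintillation counted; IC50 from tight-binding (Morrison) fit.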

T2 sequence (P26663 2420-2989, stated change not applied): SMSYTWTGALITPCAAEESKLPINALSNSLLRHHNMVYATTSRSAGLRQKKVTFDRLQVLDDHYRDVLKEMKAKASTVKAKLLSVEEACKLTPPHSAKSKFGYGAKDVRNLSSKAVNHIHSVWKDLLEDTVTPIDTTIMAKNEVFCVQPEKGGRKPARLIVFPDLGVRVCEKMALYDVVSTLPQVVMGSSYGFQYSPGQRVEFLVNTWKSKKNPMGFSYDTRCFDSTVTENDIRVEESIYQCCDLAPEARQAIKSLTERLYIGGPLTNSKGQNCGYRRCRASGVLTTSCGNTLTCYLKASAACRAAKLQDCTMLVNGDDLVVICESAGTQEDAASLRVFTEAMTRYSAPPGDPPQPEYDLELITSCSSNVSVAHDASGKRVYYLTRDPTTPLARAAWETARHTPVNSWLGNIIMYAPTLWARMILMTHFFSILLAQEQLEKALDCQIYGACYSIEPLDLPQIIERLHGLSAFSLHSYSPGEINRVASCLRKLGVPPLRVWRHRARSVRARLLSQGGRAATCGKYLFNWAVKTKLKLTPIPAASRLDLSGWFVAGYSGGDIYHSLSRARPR
T1 sequence (P27958 2421-2990, stated change not applied): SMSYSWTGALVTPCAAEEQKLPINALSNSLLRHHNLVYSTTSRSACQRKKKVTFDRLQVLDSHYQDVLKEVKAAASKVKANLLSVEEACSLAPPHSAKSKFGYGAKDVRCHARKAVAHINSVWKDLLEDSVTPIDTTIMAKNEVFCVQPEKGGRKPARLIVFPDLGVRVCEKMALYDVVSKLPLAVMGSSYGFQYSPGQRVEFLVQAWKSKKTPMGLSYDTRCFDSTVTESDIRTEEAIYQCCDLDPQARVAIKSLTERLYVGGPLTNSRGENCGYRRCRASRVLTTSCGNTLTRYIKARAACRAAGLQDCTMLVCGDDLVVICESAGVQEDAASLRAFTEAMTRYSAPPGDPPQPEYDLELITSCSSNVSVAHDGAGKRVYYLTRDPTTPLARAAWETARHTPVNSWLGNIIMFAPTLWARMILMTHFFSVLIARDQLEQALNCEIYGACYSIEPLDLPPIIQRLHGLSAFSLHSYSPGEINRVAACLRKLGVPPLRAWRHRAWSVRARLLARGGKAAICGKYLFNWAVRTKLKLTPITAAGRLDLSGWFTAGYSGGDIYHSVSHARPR

SMILES | EC50 [1] | EC50 [2] | melting point | IC50 [3] | IC50 [4]
CC(C)(C)c1cc(-n2ccc(=O)[nH]c2=O)cc(-c2ccc3cc(NS(C)(=O)=O)ccc3c2)c1Cl [IB-L0-2.14, N-(6-(3-tert-butyl-2-chloro-5-(2,4-dioxo-3,4-dihydropyrimidin-1(2H)-yl)phenyl)naphthalen-2-yl)methanesulfonamide] | 0.1 to 1 µM | 0.01 to 0.1 µM | > 280 °C | – | –
COc1c(-c2ccc3c(c2)CC=C3CNS(C)(=O)=O)cc(-n2ccc(=O)[nH]c2=O)cc1-c1ccco1 [IB-L0-2.65, N-((6-(5-(2,4-dioxo-3,4-dihydropyrimidin-1(2H)-yl)-3-(furan-2-yl)-2-methoxyphenyl)-1H-inden-3-yl)methyl)methanesulfonamide] | 0.1 to 1 µM | 0.01 to 0.1 µM | – | 0.01 to 0.1 µM | < 0.01 µM
COc1c(-c2ccoc2)cc(-n2ccc(=O)[nH]c2=O)cc1-c1ccc2c(c1)CC=C2CNS(C)(=O)=O [IB-L0-2.67, N-((6-(5-(2,4-dioxo-3,4-dihydropyrimidin-1(2H)-yl)-3-(furan-3-yl)-2-methoxyphenyl)-1H-inden-3-yl)methyl)methanesulfonamide] | 0.1 to 1 µM | 0.01 to 0.1 µM | – | 0.01 to 0.1 µM | 0.01 to 0.1 µM
COc1c(-c2ccc3cc(NS(C)(=O)=O)ccc3c2)cc(-n2ccc(=O)[nH]c2=O)cc1C(C)(C)C(=O)O [IB-L0-2.77, 2-(5-(2,4-dioxo-3,4-dihydropyrimidin-1(2H)-yl)-2-methoxy-3-(6-(methylsulfonamido)naphthalen-2-yl)phenyl)-2-methylpropanoic acid] | – | – | > 300 °C | – | –
COc1c(C#C[Si](C)(C)C)cc(-n2ccc(=O)[nH]c2=O)cc1-c1ccc2cc(NS(C)(=O)=O)ccc2c1 [IB-L0-2.78, N-(6-(5-(2,4-dioxo-3,4-dihydropyrimidin-1(2H)-yl)-2-methoxy-3-((trimethylsilyl)ethynyl)phenyl)naphthalen-2-yl)methanesulfonamide] | – | – | 175 to 178 °C | – | –
COc1c(C#Cc2ccc(NS(C)(=O)=O)cc2C)cc(-n2ccc(=O)[nH]c2=O)cc1C(C)(C)C [IB-L2-1.1, N-(4-((3-tert-butyl-5-(2,4-dioxo-3,4-dihydropyrimidin-1(2H)-yl)-2-methoxyphenyl)ethynyl)-3-methylphenyl)methanesulfonamide] | < 0.01 µM | < 0.01 µM | – | < 0.01 µM | 0.01 to 0.1 µM
COc1c(C#Cc2cc(F)c(NS(C)(=O)=O)cc2C)cc(-n2ccc(=O)[nH]c2=O)cc1C(C)(C)C [IB-L2-1.3, N-(4-((3-tert-butyl-5-(2,4-dioxo-3,4-dihydropyrimidin-1(2H)-yl)-2-methoxyphenyl)ethynyl)-2-fluoro-5-methylphenyl)methanesulfonamide] | 0.01 to 0.1 µM | < 0.01 µM | – | < 0.01 µM | 0.01 to 0.1 µM
COc1c(C#Cc2cc(F)c(NS(C)(=O)=O)cc2C(F)(F)F)cc(-n2ccc(=O)[nH]c2=O)cc1C(C)(C)C [IB-L2-1.5, N-(4-((3-tert-butyl-5-(2,4-dioxo-3,4-dihydropyrimidin-1(2H)-yl)-2-methoxyphenyl)ethynyl)-2-fluoro-5-(trifluoromethyl)phenyl)methanesulfonamide] | 0.1 to 1 µM | 0.01 to 0.1 µM | – | 0.01 to 0.1 µM | 0.01 to 0.1 µM
COc1c(C#Cc2ccc(NS(C)(=O)=O)cc2O)cc(-n2ccc(=O)[nH]c2=O)cc1C(C)(C)C [IB-L2-1.6, N-(4-((3-tert-butyl-5-(2,4-dioxo-3,4-dihydropyrimidin-1(2H)-yl)-2-methoxyphenyl)ethynyl)-3-hydroxyphenyl)fmethanesulfonamide] | 0.01 to 0.1 µM | < 0.01 µM | – | < 0.01 µM | 0.01 to 0.1 µM
COc1c(C#Cc2ccc(NS(C)(=O)=O)cn2)cc(-n2ccc(=O)[nH]c2=O)cc1C(C)(C)C [IB-L2-1.8, N-(6-((3-tert-butyl-5-(2,4-dioxo-3,4-dihydropyrimidin-1(2H)-yl)-2-methoxyphenyl)ethynyl)-pyridin-3-yl)methanesulfonamide] | 0.01 to 0.1 µM | < 0.01 µM | – | < 0.01 µM | 0.01 to 0.1 µM
COc1c(C#Cc2ccc(NS(C)(=O)=O)cc2C(=O)N2CCOCC2)cc(-n2ccc(=O)[nH]c2=O)cc1C(C)(C)C [IB-L2-1.11, N-(4-((3-tert-butyl-5-(2,4-dioxo-3,4-dihydropyrimidin-1(2H)-yl)-2-methoxyphenyl)ethynyl)-3-(morpholine-4-carbonyl)phenyl)methanesulfonamide] | 0.1 to 1 µM | 0.01 to 0.1 µM | – | 0.01 to 0.1 µM | 0.01 to 0.1 µM
COc1c(C#Cc2ccc(NS(C)(=O)=O)cc2NC(C)=O)cc(-n2ccc(=O)[nH]c2=O)cc1C(C)(C)C [IB-L2-1.12, N-(2-((3-tert-butyl-5-(2,4-dioxo-3,4-dihydropyrimidin-1(2H)-yl)-2-methoxyphenyl)ethynyl)-5-(methylsulfonamido)phenyl)acetamide] | 0.1 to 1 µM | 0.01 to 0.1 µM | – | 0.01 to 0.1 µM | 0.01 to 0.1 µM
COc1c(I)cc(-n2ccc(=O)[nH]c2=O)cc1C#Cc1ccc(NS(C)(=O)=O)cc1C [IB-L2-1.15, N-(4-((5-(2,4-dioxo-3,4-dihydropyrimidin-1(2H)-yl)-3-iodo-2-methoxyphenyl)ethynyl)-3-methylphenyl)methanesulfonamide] | > 1 µM | 0.1 to 1 µM | – | 0.1 to 1 µM | 0.1 to 1 µM
COc1c(C#Cc2ccc(NS(C)(=O)=O)c3ccccc23)cc(-n2ccc(=O)[nH]c2=O)cc1C(C)(C)C [IB-L2-2.1, N-(4-((3-tert-butyl-5-(2,4-dioxo-3,4-dihydropyrimidin-1(2H)-yl)-2-methoxyphenyl)ethynyl)-naphthalen-1-yl)methanesulfonamide] | 0.1 to 1 µM | 0.1 to 1 µM | – | 0.01 to 0.1 µM | 0.01 to 0.1 µM
COc1c(C(=O)Nc2ccc(NS(C)(=O)=O)cc2)cc(-n2ccc(=O)[nH]c2=O)cc1C(C)(C)C [IB-L3-1.1, 3-tert-butyl-5-(2,4-dioxo-3,4-dihydropyrimidin-1(2H)-yl)-2-methoxy-N-(4-(methylsulfon amido)phenyl)benzamide] | 0.1 to 1 µM | 0.01 to 0.1 µM | – | 0.01 to 0.1 µM | 0.01 to 0.1 µM
CC(C)(C)c1cc(-n2ccc(=O)[nH]c2=O)cc(C(=O)Nc2ccc(NS(C)(=O)=O)cc2)c1O [IB-L3-1.2, 3-tert-butyl-5-(2,4-dioxo-3,4-dihydropyrimidin-1(2H)-yl)-2-hydroxy-N-(4-(methylsulfonamide)phenyl)benzamide] | 0.1 to 1 µM | 0.01 to 0.1 µM | – | 0.01 to 0.1 µM | < 0.01 µM
Cc1cc(=O)[nH]c(=O)n1-c1cc(C(=O)Nc2ccc(NS(C)(=O)=O)cc2)c(O)c(C(C)(C)C)c1 [IB-L3-1.4, 3-tert-butyl-2-hydroxy-5-(6-methyl-2,4-dioxo-3,4-dihydropyrimidin-1(2H)-yl)-N-(4-(methylsulfonamido)phenyl)benzamide] | > 1 µM | > 1 µM | – | 0.1 to 1 µM | 0.01 to 0.1 µM
COc1cc(NS(C)(=O)=O)ccc1C(=O)Nc1cc(-n2ccc(=O)[nH]c2=O)cc(C(C)(C)C)c1OC [IB-L4-1.1, N-(3-tert-butyl-5-(2,4-dioxo-3,4-dihydropyrimidin-1(2H)-yl)-2-methoxyphenyl)-2-methoxy-4-(methylsulfonamido)benzamide] | 0.1 to 1 µM | 0.01 to 0.1 µM | – | < 0.01 µM | 0.01 to 0.1 µM
